According to patent US7199099B2, “Methanobactin: a copper binding compound having antibiotic and antioxidant activity isolated from methanotrophic bacteria” (priority 2002, dated 2007):
Values after ≈ are worked out from the molar mass of the structure shown.

Key:
Escherichia coli, X161 = test: Antimicrobial activity, Escherichia coli X161; format: cell-based; conditions: purified methanobactin
Description: (§1) Enterococcus fecalus was cultured aerobically on Brain Heart Infusion broth at 37° C., Staphyloccus aureus, Escherichia coli, X161, and Bacillus thuringiensis were cultured aerobically on Lauria-Burtani broth at 37° C., and Listeria monocytogenes was grown on Trypticase soy broth containing 0.6% yeast extract at 35° C. Minimum inhibitory concentrations were determined as previously described (A. F. Mendoca and S. J. Knabel. 1994. A novel strictly anaerobic recovery and enrichment system incorporating lithium for detection of heat-injured Listeria monocytogenes in pasteurized milk containing background microflora. Appl. Environ. Microbiol. 60: 4001–4008).

Candida albicans, X657 = test: Antimicrobial activity, Candida albicans X657; format: cell-based; conditions: purified methanobactin
Micrococcus luteus X186 = format: cell-based
[1] = format: physicochemical
Description: Solution properties of the methanobactin varied with metal binding and pH.

gram-positive bacteria = test: Bacteriocidal activity against gram-positive bacteria; format: cell-based, Staphylococci, Streptococci and Enterococci; conditions: including vancomycin resistant and methicillin-resistant strains
Description: as §1

washed cell suspensions = test: Oxygen uptake activity of washed cell suspensions; format: cell-based
Description: Oxygen uptake activity of washed cell suspensions was determined with a Clark oxygen electrode maintained at a constant water temperature of 37° C. Cell samples containing methanobactin were preincubated 5 minutes at 37° C. before the addition of substrate.

gram-negative bacteria = test: Activity against gram-negative bacteria; format: cell-based

## CSCC[C@H](NC(=O)[C@@H]1CSSC[C@H](NC(=O)[C@H](CO)NC(=O)CN/C(S)=C2/N=C(C(=O)CC(C)C)OC2=O)C(=O)N[C@@H](Cc2ccc(O)cc2)C(=O)N2CCC[C@H]2C2=N/C(=C(\S)N[C@@H](CO)C(=O)N1)C(=O)O2)C(=O)O [methanobactin, N-2-isopropylester-(4-thionyl-5-hydroxy-imidazole)-Gly^1-Ser^2-Cys^3-Tyr^4-pyrrolidine-(4-thionyl-5-hydroxy-imidazole)-Ser^5-Cys^6-Met^7]
Escherichia coli, X161
  Antimicrobial Activity: 0
Candida albicans, X657
  Antimicrobial Activity: 0
Micrococcus luteus X186
  MIC: 24 µg/mL (≈ 20.8 µM)
[1]
  solubility: very soluble
gram-positive bacteria
  bacteriocidal activity against gram-positive bacteria: bacteriocidal activity
Washed cell suspensions; higher concentrations
  effect on respiration: respiratory inhibitor
Washed cell suspensions; low concentrations
  effect on respiration: respiratory uncoupler
gram-negative bacteria; methanobactin by itself
  effectiveness against gram-negative bacteria: not been found to be effective
gram-negative bacteria; with EDTA, at least about 1:1 methanobactin to EDTA
  activity against gram negative bacteria in combination with a metal chelator: bacteriocidal
